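Growth conditions: 96-well plates. Treatment: test compound, 48 hours, 5 concentrations. Analysis: linear interpolation between bracketing concentrations; unreached endpoints set to highest concentration. At the TGI there is no net growth.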 Where only a bound is given, the exact number is not on record here.

Among the test systems are XF 498 CNS; DMS 114 small cell lung; SNB-78 CNS; DMS 273 small cell lung; HOP-18 NSCLC; DLD-1 colon; RXF-631 renal.
Test in all cases: NCI anticancer screen, dose series, 48 h

As to `CCN(CC)CC(=O)O[C@]1(CC)C(=O)OCc2c1cc1n(c2=O)Cc2cc3ccccc3nc2-1`, the TGI is 2.19 µM in the experiment on XF 498 CNS; 0.362 µM in the experiment on DMS 114 small cell lung; over 100 µM with SNB-78 CNS; 0.0304 µM in the experiment with DMS 273 small cell lung; over 100 µM with HOP-18 NSCLC; over 100 µM in the experiment on DLD-1 colon.
In the case of `O=C1CCCCC2N(C(c3ccccc3)c3ccccc3)CC[C@@]12c1ccccc1` (mixture of isomers), the TGI in the experiment on DMS 114 small cell lung, in the experiment on SNB-78 CNS, in the experiment on DMS 273 small cell lung and in the experiment with RXF-631 renal was over 10 µM throughout.
For the molecule `Clc1ccccc1/C=C/c1cscn1`, the TGI in the experiment with XF 498 CNS, with DMS 114 small cell lung, in the experiment on SNB-78 CNS and in the experiment on DLD-1 colon was over 100 µM throughout.
On to `C=CC1(C)CCC2=C(CCC3C(C)(C(=O)OC)CCCC23C)C1=O` (stereo not drawn), for which the TGI with DMS 114 small cell lung stood at 32.7 µM; with SNB-78 CNS, 80.1 µM; in the experiment on DLD-1 colon it was 36.5 µM; in the experiment with RXF-631 renal, 31.6 µM.
